Measurements from paper PMC10028264, “Synergistic antifungal interaction of N-(butylcarbamothioyl) benzamide and amphotericin B against Cryptococcus neoformans” (Frontiers in Microbiology, 2023).
In brackets after ≈: the same amount, converted by molar mass.

What was measured:
[1] = test system: C neoformans mature biofilms; parameters: method as in Martinez and Casadevall, 2006; details: strains ATCC 24067, ATCC B3501 and H99; ref Martinez and Casadevall, 2006; cited from earlier work
[2] = test system: HEp-2 CCL-23; test: Cytotoxicity, MTT reduction assay; type: cell-based, human; details: SI = CC90/MIC, MIC 62.5 μg/mL
Experimental: (§1) The effect of BTU-01 was analyzed on mammalian epithelial cell lines [HEp-2 CCL-23™ (ATCC), LLC-MK2, VERO CCL81 and HeLa (Merck, Brazil)], and the cytotoxicity was evaluated as described by [Longhi et al. (2016)] with modifications. Briefly, cells were cultured in Dulbecco’s Modified Eagle’s medium (DMEM) supplemented with 10% fetal bovine serum (Invitrogen, Brazil), 2 mM L-glutamine, 100 IU/mL penicillin, 100 μg/mL streptomycin, 1% tylosin in flat-bottomed 96-well microtiter plates, in 5% CO2 at 37°C for 48 h. Then, the medium was carefully removed and fresh medium containing twofold serially diluted BTU-01 (0.095–500.0 μg/mL) was added. The cells were incubated for further 24 h under the same conditions. Cell viability was analyzed by the MTT reduction assay according to the manufacturer’s recommendation. The concentration of the compound needed to inhibit the viable cells up to 50 and 90% by regression analysis corresponds to the 50% (CC50) and 90% (CC90) cytotoxic concentrations, respectively.
(§2) The concentration of BTU-01 capable of causing 90% of hemolysis/cytotoxicity was used to calculate the selectivity index (SI) using the following equation: SI = CC90/MIC.

[3] = Cytotoxicity, MTT reduction assay; type: cell-based, human; details: human, HEp-2 CCL-23 cells, 24 h, MTT
Experimental: as §1, §2

[4] = test system: LLC-MK2; test: Cytotoxicity, MTT reduction assay; type: cell-based; details: SI = CC90/MIC, MIC 62.5 μg/mL
Experimental: as §1, §2

[5] = test system: VERO-CCL81; test: Cytotoxicity, MTT reduction assay; type: cell-based; details: SI = CC90/MIC, MIC 62.5 μg/mL
Experimental: as §1, §2

[6] = test system: HeLa; test: Cytotoxicity, MTT reduction assay; type: cell-based; details: SI = CC90/MIC, MIC 62.5 μg/mL
Experimental: as §1, §2

[7] = Cytotoxicity, MTT reduction assay; type: cell-based; details: 24 h, MTT
Experimental: as §1, §2

[8] = test system: Cryptococcus neoformans; test: Checkerboard broth microdilution assay on planktonic cells; type: cell-based; details: both strains (ATCC 34872 and 1172)
Experimental: The antifungal effect of BTU-01 combined with AmB was evaluated using the checkerboard broth microdilution assay, according to [Scott et al. (1995)]. Twofold serial dilutions of BTU-01 (0.03–1000.0 μg/mL) and AmB (0.000001–16.0 μg/mL) were respectively added across the rows and columns of the U-bottom 96-well microtiter plates. Thereafter, 100 μL (0.5–2.5 × 10^3 CFU/mL) of fungal inoculum was added and the plates were incubated at 37°C for 72 h. The Fractional Inhibitory Concentration (FIC) of each compound was determined by the ratio of the MIC obtained when the compounds were tested in combination and the MIC of the compounds tested individually. The FIC Index (FICI) was calculated from the sum of the FICBTU–01 and FICAmB, and the value was interpreted as: synergism FICI ≤ 0.5, no interaction 0.5 < FICI < 4.0, and antagonism FICI > 4.0 ([Odds, 2003]).

[9] = test system: human erythrocytes; test: Hemolysis assay; type: cell-based; details: estimated from the highest concentration tested; all cryptococcal strains
Experimental: The cytotoxicity of BTU-01 (1.95–1000.0 μg/mL) alone and combined with AmB (0.015–16.0 μg/mL) was evaluated on human erythrocytes. Blood from a healthy donor was collected according to the Declaration of Helsinki principles, defibrinated and an erythrocytes suspension (3%) was prepared in 5% glycosylated saline. A total of 100 μL of the erythrocytes suspension was incubated for 3 h at 37°C in wells of U-bottom 96-well polystyrene plates containing different concentrations of the compounds. Wells without the compounds and with 1% Triton X-100 were used as negative and positive hemolysis controls, respectively. The OD of the supernatant was determined at 550 nm with a microtiter plate reader (Synergy HT, BioTek, USA). The percentage of hemolysis was calculated by comparison with the positive control ([Izumi et al., 2012]).
as §2

[10] = African green monkey, VERO CCL81 cells

In the case of `C[C@@H]1[C@H](O)[C@@H](C)/C=C/C=C/C=C/C=C/C=C/C=C/C=C/[C@H](O[C@@H]2O[C@H](C)[C@@H](O)[C@H](N)[C@@H]2O)C[C@@H]2O[C@](O)(C[C@@H](O)C[C@@H](O)[C@H](O)CC[C@@H](O)C[C@@H](O)CC(=O)O[C@H]1C)C[C@H](O)[C@H]2C(=O)O` [Amphotericin B, amphotericin B], the “concentration inhibiting metabolic activity of mature biofilms” value [1] is given as “higher than 2.0 μg/mL”.

With `CCCCNC(=S)NC(=O)c1ccccc1` [BTU-01, N-(butylcarbamothioyl) benzamide] the SI [2] was 3.9, the CC50 at 24 h [3] was 104 µg/mL (≈ 441 µM) and the CC90 at 24 h [3] was 245 µg/mL (≈ 1040 µM). The SI [4] was 2.3, the SI [5] was 3.9 and the SI [6] was 2.5. It also gave a CC50 at 24 h [7, 10] of 121 µg/mL (≈ 513 µM), a CC90 at 24 h [7, 10] of 244 µg/mL (≈ 1030 µM) and a CC50 at 24 h ([7]; human, HeLa cells) of 83.8 µg/mL (≈ 355 µM). It also gave a CC90 at 24 h ([7]; human, HeLa cells) of 154 µg/mL (≈ 650 µM), a CC50 at 24 h ([7]; rhesus monkey, LLC-MK2 cells) of 71.7 µg/mL (≈ 303 µM) and a CC90 at 24 h ([7]; rhesus monkey, LLC-MK2 cells) of 143 µg/mL (≈ 603 µM). For the same molecule, the “decrease in MIC value in combination” value [8] was 16 fold and the SI [9] was “greater than 16”.
